Assays:
[1] = molecular target: ATP-dependent translocase ABCB1 (Mus musculus, UniProt P21447); assay: TP_TRANSPORTER: decrease in intestinal clearance in mdr1a(-/-) mouse; format: functional, tissue-based, Intestine
[2] = molecular target: ATP-dependent translocase ABCB1 (Homo sapiens, UniProt P08183); assay: TP_TRANSPORTER: transepithelial transport (basal to apical) in MDR1-expressing LLC-PK1 cells; format: functional, cell-based; conditions: pig
Sequence of ATP-dependent translocase ABCB1 (Homo sapiens, UniProt P08183) (P08183 whole entry): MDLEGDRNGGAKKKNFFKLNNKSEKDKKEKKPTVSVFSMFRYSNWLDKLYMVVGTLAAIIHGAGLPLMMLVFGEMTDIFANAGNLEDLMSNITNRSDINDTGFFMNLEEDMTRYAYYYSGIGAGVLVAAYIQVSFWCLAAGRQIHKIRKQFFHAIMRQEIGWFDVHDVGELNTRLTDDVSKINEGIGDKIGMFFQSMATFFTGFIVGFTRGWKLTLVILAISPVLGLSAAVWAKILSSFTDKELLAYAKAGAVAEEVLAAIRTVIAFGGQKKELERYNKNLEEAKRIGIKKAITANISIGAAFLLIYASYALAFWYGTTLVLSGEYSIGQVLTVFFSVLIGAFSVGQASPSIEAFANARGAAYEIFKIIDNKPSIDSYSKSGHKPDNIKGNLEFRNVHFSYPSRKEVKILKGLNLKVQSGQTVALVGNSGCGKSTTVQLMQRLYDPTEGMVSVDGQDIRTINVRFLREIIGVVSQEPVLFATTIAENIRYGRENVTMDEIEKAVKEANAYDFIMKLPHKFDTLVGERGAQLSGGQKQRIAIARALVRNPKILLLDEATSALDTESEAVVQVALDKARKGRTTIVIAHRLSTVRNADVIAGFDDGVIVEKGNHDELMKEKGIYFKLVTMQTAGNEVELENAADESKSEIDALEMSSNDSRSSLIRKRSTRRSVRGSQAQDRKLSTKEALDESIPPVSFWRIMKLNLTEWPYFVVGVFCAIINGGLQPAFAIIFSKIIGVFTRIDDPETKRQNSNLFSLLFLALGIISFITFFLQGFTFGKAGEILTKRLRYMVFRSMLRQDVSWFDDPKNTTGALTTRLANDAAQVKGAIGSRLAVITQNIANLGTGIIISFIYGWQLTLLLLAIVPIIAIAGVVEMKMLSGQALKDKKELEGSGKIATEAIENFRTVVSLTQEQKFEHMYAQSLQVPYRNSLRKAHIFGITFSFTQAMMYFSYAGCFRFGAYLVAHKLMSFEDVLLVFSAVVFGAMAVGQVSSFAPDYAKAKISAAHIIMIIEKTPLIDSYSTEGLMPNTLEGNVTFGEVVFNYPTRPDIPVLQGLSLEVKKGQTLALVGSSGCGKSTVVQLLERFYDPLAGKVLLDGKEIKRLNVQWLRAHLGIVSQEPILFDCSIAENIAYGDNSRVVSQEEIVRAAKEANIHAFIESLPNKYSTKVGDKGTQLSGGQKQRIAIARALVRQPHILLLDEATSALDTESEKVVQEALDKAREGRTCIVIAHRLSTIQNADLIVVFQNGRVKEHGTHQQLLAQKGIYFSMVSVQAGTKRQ

Sequence of ATP-dependent translocase ABCB1 (Mus musculus, UniProt P21447) (P21447 whole entry): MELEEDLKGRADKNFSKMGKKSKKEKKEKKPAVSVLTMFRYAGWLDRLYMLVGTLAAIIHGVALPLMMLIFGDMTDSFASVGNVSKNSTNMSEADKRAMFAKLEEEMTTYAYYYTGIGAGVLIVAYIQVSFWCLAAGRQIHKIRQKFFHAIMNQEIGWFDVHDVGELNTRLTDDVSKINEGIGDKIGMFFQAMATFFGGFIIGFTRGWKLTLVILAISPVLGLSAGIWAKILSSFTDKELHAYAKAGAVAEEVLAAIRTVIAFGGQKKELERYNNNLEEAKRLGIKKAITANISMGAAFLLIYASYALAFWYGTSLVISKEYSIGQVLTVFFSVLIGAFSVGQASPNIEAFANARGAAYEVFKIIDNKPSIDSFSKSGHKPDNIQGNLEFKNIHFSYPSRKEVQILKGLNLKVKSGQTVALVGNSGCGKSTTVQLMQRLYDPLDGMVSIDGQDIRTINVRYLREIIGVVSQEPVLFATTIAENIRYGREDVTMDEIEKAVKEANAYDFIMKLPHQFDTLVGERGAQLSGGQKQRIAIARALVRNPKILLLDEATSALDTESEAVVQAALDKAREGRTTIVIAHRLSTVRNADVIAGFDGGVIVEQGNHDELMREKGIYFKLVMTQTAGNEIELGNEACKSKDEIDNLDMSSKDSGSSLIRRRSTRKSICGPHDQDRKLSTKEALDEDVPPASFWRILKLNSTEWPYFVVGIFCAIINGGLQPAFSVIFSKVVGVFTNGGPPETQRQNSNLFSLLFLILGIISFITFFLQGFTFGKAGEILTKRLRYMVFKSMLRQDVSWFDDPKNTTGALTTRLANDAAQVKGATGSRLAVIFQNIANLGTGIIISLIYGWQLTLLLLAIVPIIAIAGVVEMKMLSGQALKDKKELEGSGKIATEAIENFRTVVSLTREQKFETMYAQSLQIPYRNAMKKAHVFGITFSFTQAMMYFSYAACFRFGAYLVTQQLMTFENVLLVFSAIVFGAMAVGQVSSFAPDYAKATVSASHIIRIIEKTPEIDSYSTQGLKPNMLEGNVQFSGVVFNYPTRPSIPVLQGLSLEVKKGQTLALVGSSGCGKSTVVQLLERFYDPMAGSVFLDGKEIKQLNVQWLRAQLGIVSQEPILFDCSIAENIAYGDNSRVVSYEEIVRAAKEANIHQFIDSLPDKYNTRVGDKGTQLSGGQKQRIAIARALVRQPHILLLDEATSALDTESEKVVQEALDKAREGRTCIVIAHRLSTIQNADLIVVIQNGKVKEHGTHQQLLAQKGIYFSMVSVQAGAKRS

Compound | Activity [1] | Activity [2]
Cc1c(F)c(N2CCNC(C)C2)cc2c1c(=O)c(C(=O)O)cn2C1CC1 (stereo not drawn) [GREPAFLOXACIN] | substrate [+] | substrate [+]
C[C@@H]1CN(c2c(F)c(N)c3c(=O)c(C(=O)O)cn(C4CC4)c3c2F)C[C@H](C)N1 [SPARFLOXACIN] |  | substrate [+]

Source: ChEMBL document CHEMBL2074062, “Active intestinal secretion of new quinolone antimicrobials and the partial contribution of P-glycoprotein” (J Pharm Pharmacol, 2001)
